Test results: ChEMBL document CHEMBL1201862, “PubChem BioAssay data set” (2004)
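Compound exposure: 48 hours, 5 concentrations, 96-well plates. Abbreviation: GI50, concentration required for 50% inhibition of growth.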 The source made the active and inactive calls. No stated cut-off is given here; in the data, active = GI50 up to about 1.1 µM and inactive = higher.

Tests used:
Experiment in all cases: DTP human tumour cell line panel, 48 h
[1] = system: K562
[2] = system: SN12C
[3] = system: BT-549
[4] = system: OVCAR-8
[5] = system: HL-60
[6] = system: MOLT-4
[7] = system: SK-MEL-5
[8] = system: Hs-578T
[9] = system: HOP-62
[10] = system: SF-295
[11] = system: SK-MEL-28
[12] = system: LOX IMVI
[13] = system: SR
[14] = system: CCRF-CEM
[15] = system: A549
[16] = system: NCI-H460
[17] = system: UACC-62
[18] = system: NCI/ADR-RES
[19] = system: NCI-H23
[20] = system: T47D

Measured: GI50

Cc1nc2c(Br)cc(Br)cc2c(=O)n1-c1ccccc1N
inactive: [1] 29.8 µM | [2] 29.9 µM | [3] 27.5 µM | [4] 62.5 µM | [5] 19.9 µM | [6] 21.9 µM | [7] 18.3 µM | [8] 25.9 µM | [9] 70.5 µM | [10] 53 µM | [11] 44.4 µM | [12] 27.5 µM | [13] 37 µM | [14] 30.1 µM | [15] 33.5 µM | [16] 31.8 µM | [17] 30.1 µM | [18] 45.9 µM

O=c1[nH]c2[nH]c(-c3ccc(Br)cc3)cc2c2ccccc12
inactive: [1] 27.1 µM | [2] 41.4 µM | [3] 76.4 µM | [4] 23.3 µM | [5] 13.5 µM | [6] 12 µM | [19] > 100 µM | [7] > 100 µM | [8] 15.1 µM | [9] 22.1 µM | [10] 70 µM | [11] > 100 µM | [12] > 10 µM | [13] 11.3 µM | [16] > 100 µM | [17] > 100 µM | [18] 50.1 µM

CC1CC(N)=Nc2ccccc2N1Cc1ccccc1 (stereo not drawn)
inactive: [1] 4.98 µM | [2] 16.6 µM | [3] 13.3 µM | [4] 14.6 µM | [5] 3.96 µM | [6] 3.49 µM | [19] 16.3 µM | [7] 14.7 µM | [8] 11.1 µM | [9] 13 µM | [10] 14.5 µM | [11] 11.6 µM | [14] 12.4 µM | [15] 17.4 µM | [16] 13.9 µM | [17] 14.2 µM | [18] 15.1 µM

CC1N(O)C(c2ccccc2)C(c2ccccc2)=[N+]1[O-] (stereo not drawn)
inactive: [1] > 100 µM | [2] > 100 µM | [3] > 100 µM | [4] > 100 µM | [5] > 100 µM | [6] > 100 µM | [19] > 100 µM | [7] > 100 µM | [8] > 100 µM | [9] > 100 µM | [10] > 100 µM | [11] > 100 µM | [12] > 100 µM | [13] > 100 µM | [14] > 100 µM | [15] > 100 µM | [16] > 100 µM | [17] > 100 µM | [18] > 100 µM

CCOC(=O)C(=CN1CCNC1=S)C(=O)OCC
inactive: [1] > 100 µM | [2] > 100 µM | [3] > 100 µM | [4] > 100 µM | [5] > 100 µM | [6] > 100 µM | [19] > 100 µM | [7] > 100 µM | [20] > 100 µM | [9] > 100 µM | [10] > 100 µM | [11] > 100 µM | [12] > 100 µM | [13] > 100 µM | [14] > 100 µM | [15] > 100 µM | [16] > 100 µM | [17] > 100 µM | [18] > 100 µM

O=C1/C(=C/c2cccc(F)c2)CCCc2ccccc21
inactive: [1] 15.1 µM | [2] 17.9 µM | [3] 17.6 µM | [4] 15.8 µM | [5] 21.5 µM | [6] 17.7 µM | [19] 20.4 µM | [8] 13.2 µM | [9] 14.3 µM | [10] 16.1 µM | [11] 16.6 µM | [12] 16.5 µM | [13] 14.7 µM | [14] 15.5 µM | [15] 17.7 µM | [16] 17.4 µM | [17] 15.3 µM | [18] 16.5 µM
